Laboratory results reported in patent publication US10959432B2, “Microbiocidal oxadiazole derivatives” (Syngenta Participations AG, priority 2016, dated 2021).

How the values were obtained:
[1] = test system: Puccinia recondita f. sp. tritici; assay: Fungicidal activity against Puccinia recondita f. sp. tritici / wheat / leaf disc curative (brown rust); format: in vivo; settings: foliar, 200 ppm in the applied formulation, wheat leaf segments cv. Kanzler, curative (applied 1 day after inoculation), assessed 6 to 8 days after application, read-out: disease control compared to untreated control leaf disks
Experimental: (§1) Leaf disks or leaf segments of various plant species are cut from plants grown in a greenhouse. The cut leaf disks or segments are placed in multiwell plates (24-well format) onto water agar. The leaf disks are sprayed with a test solution before (preventative) or after (curative) inoculation. Compounds to be tested are prepared as DMSO solutions (max. 10 mg/ml) which are diluted to the appropriate concentration with 0.025% Tween20 just before spraying. The inoculated leaf disks or segments are incubated under defined conditions (temperature, relative humidity, light, etc.) according to the respective test system. A single evaluation of disease level is carried out 3 to 14 days after inoculation, depending on the pathosystem. Percent disease control relative to the untreated check leaf disks or segments is then calculated. General Examples of Liquid Culture Tests in Well Plates:
Example 2: Fungicidal Activity Against Puccinia recondita f. sp. Tritici/Wheat/Leaf Disc Curative (Brown Rust)
Wheat leaf segments cv. Kanzler are placed on agar in multiwell plates (24-well format). The leaf segments are then inoculated with a spore suspension of the fungus. Plates were stored in darkness at 19° C. and 75% relative humidity. The formulated test compound diluted in water was applied 1 day after inoculation. The leaf segments were incubated at 19° C. and 75% relative humidity under a light regime of 12 hours light/12 hours darkness in a climate cabinet and the activity of a compound was assessed as percent disease control compared to untreated when an appropriate level of disease damage appears in untreated check leaf segments (6 to 8 days after application).
(§2) The following compounds at 200 ppm in the applied formulation give at least 80% disease control in this test when compared to untreated control leaf disks under the same conditions, which show extensive disease development.

Phakopsora pachyrhizi = assay: Fungicidal activity against Phakopsora pachyrhizi / soybean / leaf disc preventative (Asian soybean rust); format: in vivo; settings: foliar, 200 ppm in the applied formulation, soybean leaf disks, preventative (inoculated one day after application), assessed 12 to 14 days after application, read-out: disease control compared to untreated control leaf disks
Summary of the method: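 Soybean leaf discs on water agar sprayed with formulated compound diluted in water; spore suspension sprayed on lower leaf surface one day later. Incubated 24-36 h dark at 20° C, 75% rh, then 20° C, 12 h light/day, 75% rh. Percent disease control versus untreated scored 12 to 14 days after application.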

[2] = test system: Glomerella laqenarium (Colletotrichum lagenarium); assay: Fungicidal activity against Glomerella lagenarium (Colletotrichum lagenarium) liquid culture / cucumber / preventative (anthracnose); format: cell-based; settings: Colletotrichum orbiculare; 20 ppm in the applied formulation; liquid culture in PDB, 24° C., 3 to 4 days after application; read-out: disease control compared to untreated control (inhibition of growth measured photometrically)
Summary of the method: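 Cryostored conidia mixed into potato dextrose broth and added to test compound (from DMSO solution) in microtiter plates. Incubated at 24 °C; growth inhibition read photometrically 3 to 4 days after application, as percent activity versus untreated check.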

[3] = test system: Puccinia recondita f. sp. tritici; assay: Fungicidal activity against Puccinia recondita f. sp. tritici / wheat / leaf disc preventative (brown rust); format: in vivo; settings: foliar, 200 ppm in the applied formulation, wheat leaf segments cv. Kanzler, preventative (inoculated 1 day after application), assessed 7 to 9 days after application, read-out: disease control compared to untreated control leaf disks
Experimental: as §1
Example 1: Fungicidal Activity Against Puccinia recondita f. sp. tritici/Wheat/Leaf Disc Preventative (Brown Rust)
Wheat leaf segments cv. Kanzler were placed on agar in multiwell plates (24-well format) and sprayed with the formulated test compound diluted in water. The leaf disks were inoculated with a spore suspension of the fungus 1 day after application. The inoculated leaf segments were incubated at 19C and 75% relative humidity (rh) under a light regime of 12 hours light/12 hours darkness in a climate cabinet and the activity of a compound was assessed as percent disease control compared to untreated when an appropriate level of disease damage appears in untreated check leaf segments (7 to 9 days after application).
as §2

CC(C)NC(=O)c1ccc(-c2noc(C(F)(F)F)n2)cc1F [Compound 3b.27, 2-fluoro-N-isopropyl-4-[5-(trifluoromethyl)-1,2,4-oxadiazol-3-yl]benzamide]
≥ 80%: pest or weed control at 200 ppm [1] | pest or weed control at 200 ppm (Phakopsora pachyrhizi) | inhibition at 20 ppm [2] | pest or weed control at 200 ppm [3]

CC(C)(O)CNC(=O)c1ccc(-c2noc(C(F)(F)F)n2)cc1 [Compound 3a.27, N-(2-hydroxy-2-methyl-propyl)-4-[5-(trifluoromethyl)-1,2,4-oxadiazol-3-yl]benzamide]
≥ 80%: pest or weed control at 200 ppm [1] | pest or weed control at 200 ppm (Phakopsora pachyrhizi) | inhibition at 20 ppm [2] | pest or weed control at 200 ppm [3]

CC(=O)CC(C)(C)NC(=O)c1ccc(-c2noc(C(F)(F)F)n2)cc1 [Compound 3a.16, N-(1,1-dimethyl-3-oxo-butyl)-4-[5-(trifluoromethyl)-1,2,4-oxadiazol-3-yl]benzamide]
≥ 80%: pest or weed control at 200 ppm [1] | pest or weed control at 200 ppm (Phakopsora pachyrhizi) | inhibition at 20 ppm [2] | pest or weed control at 200 ppm [3]

CCCN(C)C(=O)c1ccc(-c2noc(C(F)(F)F)n2)cc1F [Compound 3b.34, 2-fluoro-N-methyl-N-propyl-4-[5-(trifluoromethyl)-1,2,4-oxadiazol-3-yl]benzamide]
≥ 80%: pest or weed control at 200 ppm [1] | pest or weed control at 200 ppm (Phakopsora pachyrhizi) | inhibition at 20 ppm [2] | pest or weed control at 200 ppm [3]

COCCN(C)C(=O)c1ccc(-c2noc(C(F)(F)F)n2)cc1F [Compound 3b.19, 2-fluoro-N-(2-methoxyethyl)-N-methyl-4-[5-(trifluoromethyl)-1,2,4-oxadiazol-3-yl]benzamide]
≥ 80%: pest or weed control at 200 ppm [1] | pest or weed control at 200 ppm (Phakopsora pachyrhizi) | inhibition at 20 ppm [2] | pest or weed control at 200 ppm [3]

CCC(O)CNC(=O)c1ccc(-c2noc(C(F)(F)F)n2)cc1F (stereo not shown) [Compound 3b.16, 2-fluoro-N-(2-hydroxybutyl)-4-[5-(trifluoromethyl)-1,2,4-oxadiazol-3-yl]benzamide]
≥ 80%: pest or weed control at 200 ppm [1] | pest or weed control at 200 ppm (Phakopsora pachyrhizi) | inhibition at 20 ppm [2] | pest or weed control at 200 ppm [3]

COCC(C)NC(=O)c1ccc(-c2noc(C(F)(F)F)n2)cc1 (stereo not shown) [Compound 3a.37, N-(2-methoxy-1-methyl-ethyl)-4-[5-(trifluoromethyl)-1,2,4-oxadiazol-3-yl]benzamide]
≥ 80%: pest or weed control at 200 ppm [1] | pest or weed control at 200 ppm (Phakopsora pachyrhizi) | inhibition at 20 ppm [2] | pest or weed control at 200 ppm [3]

CC(C)(C)NC(=O)c1ccc(-c2noc(C(F)(F)F)n2)cc1 [Compound 3a.32, N-tert-butyl-4-[5-(trifluoromethyl)-1,2,4-oxadiazol-3-yl]benzamide]
≥ 80%: pest or weed control at 200 ppm [1] | pest or weed control at 200 ppm (Phakopsora pachyrhizi) | inhibition at 20 ppm [2] | pest or weed control at 200 ppm [3]

CC(C)CCNC(=O)c1ccc(-c2noc(C(F)(F)F)n2)cc1 [Compound 3a.38, N-isopentyl-4-[5-(trifluoromethyl)-1,2,4-oxadiazol-3-yl]benzamide]
≥ 80%: pest or weed control at 200 ppm [1] | pest or weed control at 200 ppm (Phakopsora pachyrhizi) | inhibition at 20 ppm [2] | pest or weed control at 200 ppm [3]

CCN(C(=O)c1ccc(-c2noc(C(F)(F)F)n2)cc1F)C(C)C [Compound 3b.35, N-ethyl-2-fluoro-N-isopropyl-4-[5-(trifluoromethyl)-1,2,4-oxadiazol-3-yl]benzamide]
≥ 80%: pest or weed control at 200 ppm [1] | pest or weed control at 200 ppm (Phakopsora pachyrhizi) | inhibition at 20 ppm [2] | pest or weed control at 200 ppm [3]

CCN(C(=O)c1ccc(-c2noc(C(F)(F)F)n2)cc1)C(C)C [Compound 3a.34, N-ethyl-N-isopropyl-4-[5-(trifluoromethyl)-1,2,4-oxadiazol-3-yl]benzamide]
≥ 80%: pest or weed control at 200 ppm [1] | pest or weed control at 200 ppm (Phakopsora pachyrhizi) | inhibition at 20 ppm [2] | pest or weed control at 200 ppm [3]

CCOCCCNC(=O)c1ccc(-c2noc(C(F)(F)F)n2)cc1F [Compound 3b.24, N-(3-ethoxypropyl)-2-fluoro-4-[5-(trifluoromethyl)-1,2,4-oxadiazol-3-yl]benzamide]
≥ 80%: pest or weed control at 200 ppm [1] | pest or weed control at 200 ppm (Phakopsora pachyrhizi) | inhibition at 20 ppm [2] | pest or weed control at 200 ppm [3]

CC(O)CNC(=O)c1ccc(-c2noc(C(F)(F)F)n2)cc1 (stereo not shown) [Compound 3a.10, N-(2-hydroxypropyl)-4-[5-(trifluoromethyl)-1,2,4-oxadiazol-3-yl]benzamide]
≥ 80%: pest or weed control at 200 ppm [1] | pest or weed control at 200 ppm (Phakopsora pachyrhizi) | inhibition at 20 ppm [2] | pest or weed control at 200 ppm [3]

CN(C(=O)c1ccc(-c2noc(C(F)(F)F)n2)cc1)C(C)(C)C [Compound 3a.35, N-tert-butyl-N-methyl-4-[5-(trifluoromethyl) 1,2,4-oxadiazol-3-yl]benzamide]
≥ 80%: pest or weed control at 200 ppm [1] | pest or weed control at 200 ppm (Phakopsora pachyrhizi) | inhibition at 20 ppm [2] | pest or weed control at 200 ppm [3]

C=C(C)CN(CC)C(=O)c1ccc(-c2noc(C(F)(F)F)n2)cc1 [Compound 3a.31, N-ethyl-N-(2-methylallyl)-4-[5-(trifluoromethyl)-1,2,4-oxadiazol-3-yl]benzamide]
≥ 80%: pest or weed control at 200 ppm [1] | pest or weed control at 200 ppm (Phakopsora pachyrhizi) | inhibition at 20 ppm [2] | pest or weed control at 200 ppm [3]

O=C(NCCCCCO)c1ccc(-c2noc(C(F)(F)F)n2)cc1F [Compound 3b.22, 2-fluoro-N-(5-hydroxypentyl)-4-[5-(trifluoromethyl)-1,2,4-oxadiazol-3-yl]benzamide]
≥ 80%: pest or weed control at 200 ppm [1] | pest or weed control at 200 ppm (Phakopsora pachyrhizi) | inhibition at 20 ppm [2] | pest or weed control at 200 ppm [3]

O=C(Nc1nc(Br)n[nH]1)c1ccc(-c2noc(C(F)(F)F)n2)cc1 [Compound 5a.6, N-(3-bromo-1H-1,2,4-triazol-5-yl)-4-[5-(trifluoromethyl)-1,2,4-oxadiazol-3-yl]benzamide]
≥ 80%: pest or weed control at 200 ppm [1] | pest or weed control at 200 ppm (Phakopsora pachyrhizi) | inhibition at 20 ppm [2] | pest or weed control at 200 ppm [3]

CCOC(C)CNC(=O)c1ccc(-c2noc(C(F)(F)F)n2)cc1 (stereo not shown) [Compound 3a.11, N-(2-ethoxypropyl)-4-[5-(trifluoromethyl)-1,2,4-oxadiazol-3-yl]benzamide]
≥ 80%: pest or weed control at 200 ppm [1] | pest or weed control at 200 ppm (Phakopsora pachyrhizi) | inhibition at 20 ppm [2] | pest or weed control at 200 ppm [3]

CCCN(C)C(=O)c1ccc(-c2noc(C(F)(F)F)n2)cc1 [Compound 3a.33, N-methyl-N-propyl-4-[5-(trifluoromethyl)-1,2,4-oxadiazol-3-yl]benzamide]
≥ 80%: pest or weed control at 200 ppm [1] | pest or weed control at 200 ppm (Phakopsora pachyrhizi) | inhibition at 20 ppm [2] | pest or weed control at 200 ppm [3]
